The values below come from US11524966B1 (Valo Early Discovery, Inc., priority 2017, dated 2022).

In the test the target is T1, USP28 (His-tagged USP28-FL-mammalian) (Homo sapiens, UniProt Q96RU2).
T1 construct: Expression of USP28 (1-1077)-TEV-6*His (pTT5 vector); made in house; host or cells: Expi293f cells (pTT5 vector)
T1 sequence (Q96RU2 1-1077): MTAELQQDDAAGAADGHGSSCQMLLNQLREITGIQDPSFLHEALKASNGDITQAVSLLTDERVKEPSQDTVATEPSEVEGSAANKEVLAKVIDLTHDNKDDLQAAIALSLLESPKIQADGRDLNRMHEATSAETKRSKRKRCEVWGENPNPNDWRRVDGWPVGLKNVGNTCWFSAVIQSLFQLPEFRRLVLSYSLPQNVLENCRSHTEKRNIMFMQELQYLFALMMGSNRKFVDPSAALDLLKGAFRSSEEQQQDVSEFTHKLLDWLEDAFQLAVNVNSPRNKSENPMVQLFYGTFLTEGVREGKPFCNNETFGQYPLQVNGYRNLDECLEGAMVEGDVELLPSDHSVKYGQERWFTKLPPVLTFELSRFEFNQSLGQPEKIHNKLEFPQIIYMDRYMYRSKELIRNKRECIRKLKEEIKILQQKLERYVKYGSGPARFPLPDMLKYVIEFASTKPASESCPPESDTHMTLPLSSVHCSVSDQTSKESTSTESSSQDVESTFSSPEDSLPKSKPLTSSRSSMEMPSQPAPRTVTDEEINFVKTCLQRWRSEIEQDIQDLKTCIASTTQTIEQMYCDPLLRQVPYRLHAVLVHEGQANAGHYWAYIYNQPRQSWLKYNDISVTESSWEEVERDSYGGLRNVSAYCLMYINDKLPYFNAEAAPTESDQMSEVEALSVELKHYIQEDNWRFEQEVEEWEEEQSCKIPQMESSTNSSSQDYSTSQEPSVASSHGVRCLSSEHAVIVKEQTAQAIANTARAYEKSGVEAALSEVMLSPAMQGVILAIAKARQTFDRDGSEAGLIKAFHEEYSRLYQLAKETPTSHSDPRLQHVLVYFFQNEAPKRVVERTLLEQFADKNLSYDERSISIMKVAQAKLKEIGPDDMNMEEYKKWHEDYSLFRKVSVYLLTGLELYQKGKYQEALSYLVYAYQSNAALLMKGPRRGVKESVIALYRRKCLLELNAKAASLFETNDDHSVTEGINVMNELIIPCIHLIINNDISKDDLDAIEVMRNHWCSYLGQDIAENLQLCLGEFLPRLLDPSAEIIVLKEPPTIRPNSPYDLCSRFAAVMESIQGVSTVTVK
Kind of test: Ubiquitin-Rhodamine 110 Assay for USP28 Activity, Example A-1(a). The test is classed as biochemical. Particulars: Ubiquitin-Rhodamine 110 assay, Example A-1(a); read-out: USP28 A-1(a) IC50 range. The method in brief:
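Full-length His-tagged human USP28 (1-1077, Expi293f-expressed), […], with 25 nM Ub-Rh110 (<<Km) in pH 8.0 Tris buffer with BME, BGG, Triton X-100. 10-point dilutions (25 μM-1.3 nM), 45 min at room temperature, citric acid stop, fluorescence 485/535 nm; IC50 by 4-parameter fit.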

For orientation: IC50 means the concentration needed to halve the response being measured. Turning to `Cc1ccc2c(N)c(C(=O)N[C@H]3CCc4nc(N5C[C@@H]6NCCC(F)(F)[C@@H]6C5)ccc4C3)sc2n1` [Example 330, N-[(6S)-2-[(4aR,7aR)-4,4-difluoro-octahydro-1H-pyrrolo[3,4-b]pyridin-6-yl]-5,6,7,8-tetrahydroquinolin-6-yl]-3-amino-6-methylthieno[2,3-b]pyridine-2-carboxamide], the 50% inhibitory concentration (IC50) fell in the range of 50 to 200 nM.

For the compound `CN[C@H]1CN(c2ccc3c(n2)CC[C@H](NC(=O)c2sc4nc(C)ccc4c2N)C3)C[C@@]1(C)O` [Example 331, 3-amino-N-[(6S)-2-[(3R,4S)-3-hydroxy-3-methyl-4-(methylamino)pyrrolidin-1-yl]-5,6,7,8-tetrahydroquinolin-6-yl]-6-methylthieno[2,3-b]pyridine-2-carboxamide], the IC50 fell in the range of 50 to 200 nM.

Regarding `CN[C@@H]1CN(c2ccc3c(n2)CC[C@H](NC(=O)c2sc4nc(C)ccc4c2N)C3)C[C@]1(C)O` [Example 332, 3-amino-N-[(6S)-2-[(3S,4R)-3-hydroxy-3-methyl-4-(methylamino)pyrrolidin-1-yl]-5,6,7,8-tetrahydroquinolin-6-yl]-6-methylthieno[2,3-b]pyridine-2-carboxamide], the concentration for half-maximal inhibition (IC50) was in the range of 50 to 200 nM.

On to `CO[C@H]1CN(c2ccc3c(c2)OC[C@H](NC(=O)c2sc4nc(C)ccc4c2N)C3)[C@@H](C)[C@@H]1N` [Example 333, 3-amino-N-[(3R)-7-[(2S,3S,4S)-3-amino-4-methoxy-2-methylpyrrolidin-1-yl]-3,4-dihydro-2H-1-benzopyran-3-yl]-6-methylthieno[2,3-b]pyridine-2-carboxamide], for which the 50% inhibitory concentration (IC50) lay in the range of 1 to 50 nM.

As for `CO[C@H]1[C@H](N)CN(c2ccc3c(c2)OC[C@H](NC(=O)c2sc4nc(C)ccc4c2N)C3)[C@H]1C` [Example 334, 3-amino-N-[(3R)-7-[(2S,3S,4R)-4-amino-3-methoxy-2-methylpyrrolidin-1-yl]-3,4-dihydro-2H-1-benzopyran-3-yl]-6-methylthieno[2,3-b]pyridine-2-carboxamide], the IC50 was 1 to 50 nM.

`CO[C@@H]1CN(c2ccc3c(c2)OC[C@H](NC(=O)c2sc4nc(C)ccc4c2N)C3)[C@H](C)[C@H]1N` [Example 335, 3-amino-N-[(3R)-7-[(2R,3R,4R)-3-amino-4-methoxy-2-methylpyrrolidin-1-yl]-3,4-dihydro-2H-1-benzopyran-3-yl]-6-methylthieno[2,3-b]pyridine-2-carboxamide]: the IC50 lay in the range of 1 to 50 nM.

With `CO[C@H]1[C@@H](C)N(c2ccc3c(c2)OC[C@H](NC(=O)c2sc4nc(C)ccc4c2N)C3)C[C@@H]1N` [Example 336, 3-amino-N-[(3R)-7-[(2R,3R,4S)-4-amino-3-methoxy-2-methylpyrrolidin-1-yl]-3,4-dihydro-2H-1-benzopyran-3-yl]-6-methylthieno[2,3-b]pyridine-2-carboxamide], the half-inhibitory concentration (IC50) lay in the range of 1 to 50 nM.

As for `Cc1ccc2c(N)c(C(=O)N[C@H]3COc4cc(N5CC6(C5)OCC[C@H]6N)ccc4C3)sc2n1` [Example 337, 3-amino-N-[(3R)-7-[(8R)-8-amino-5-oxa-2-azaspiro[3.4]octan-2-yl]-3,4-dihydro-2H-1-benzopyran-3-yl]-6-methylthieno[2,3-b]pyridine-2-carboxamide], the IC50 lay within 1 to 50 nM.

Consider `Cc1ccc2c(N)c(C(=O)N[C@H]3COc4cc(N5CC6(C5)OCC[C@@H]6N)ccc4C3)sc2n1` [Example 338, 3-amino-N-[(3R)-7-[(8S)-8-amino-5-oxa-2-azaspiro[3.4]octan-2-yl]-3,4-dihydro-2H-1-benzopyran-3-yl]-6-methylthieno[2,3-b]pyridine-2-carboxamide], for which the IC50 lay within 50 to 200 nM.

Regarding `Cc1ccc2c(N)c(C(=O)N[C@H]3COc4cc(N5C[C@@H](N)[C@@]6(CCO6)C5)ccc4C3)sc2n1` [Example 339, 3-amino-N-[(3R)-7-[(4R,8R)-8-amino-1-oxa-6-azaspiro[3.4]octan-6-yl]-3,4-dihydro-2H-1-benzopyran-3-yl]-6-methylthieno[2,3-b]pyridine-2-carboxamide], the concentration for half-maximal inhibition (IC50) fell in the range of 1 to 50 nM.

Regarding `Cc1ccc2c(N)c(C(=O)N[C@H]3COc4cc(N5C[C@H](N)[C@]6(CCO6)C5)ccc4C3)sc2n1` [Example 340, 3-amino-N-[(3R)-7-[(4S,8S)-8-amino-1-oxa-6-azaspiro[3.4]octan-6-yl]-3,4-dihydro-2H-1-benzopyran-3-yl]-6-methylthieno[2,3-b]pyridine-2-carboxamide], the IC50 lay within 1 to 50 nM.

Turning to `COC[C@@]1(C)CN(c2ccc3c(n2)CC[C@H](NC(=O)c2sc4nc(C)ccc4c2N)C3)C[C@@H]1N` [Example 341, 3-amino-N-[(6S)-2-[(3S,4R)-4-amino-3-(methoxymethyl)-3-methylpyrrolidin-1-yl]-5,6,7,8-tetrahydroquinolin-6-yl]-6-methylthieno[2,3-b]pyridine-2-carboxamide], the concentration for half-maximal inhibition (IC50) was in the range of 50 to 200 nM.

For the compound `COC[C@]1(C)CN(c2ccc3c(n2)CC[C@H](NC(=O)c2sc4nc(C)ccc4c2N)C3)C[C@@H]1N` [Example 342, 3-amino-N-[(6S)-2-[(3R,4R)-4-amino-3-(methoxymethyl)-3-methylpyrrolidin-1-yl]-5,6,7,8-tetrahydroquinolin-6-yl]-6-methylthieno[2,3-b]pyridine-2-carboxamide], the IC50 is 50 to 200 nM.

Turning to `COC[C@]1(C)CN(c2ccc3c(n2)CC[C@H](NC(=O)c2sc4nc(C)ccc4c2N)C3)C[C@H]1N` [Example 344, 3-amino-N-[(6S)-2-[(3R,4S)-4-amino-3-(methoxymethyl)-3-methylpyrrolidin-1-yl]-5,6,7,8-tetrahydroquinolin-6-yl]-6-methylthieno[2,3-b]pyridine-2-carboxamide], the IC50 was in the range of 50 to 200 nM.
